These results are taken from ChEMBL document CHEMBL3232736, “Antiproliferative activities of halogenated thieno[3,2-d]pyrimidines” (Bioorg Med Chem, 2014).

A word on the IC50: it is the midpoint of a concentration-inhibition curve.

Series [1] concerns L1210. Briefly: Cytotoxicity against mouse L1210 cells assessed as reduction in cell number after 48 hrs by cell counting assay. It counts as functional, cell-based. Particulars: L1210, 48 h.
For series [2], the system named is CCRF-CEM. Briefly: Cytotoxicity against human CCRF-CEM cells assessed as reduction in cell number after 72 hrs by cell counting assay. Type of series: functional, cell-based.
Series [3] has as its system HeLa. Briefly: Cytotoxicity against human HeLa cells assessed as reduction in cell number after 72 hrs by cell counting assay. Type of series: functional, cell-based.
Series [4] deals with Escherichia coli. Briefly: Antibacterial activity against Escherichia coli ATCC 25922 assessed as growth inhibition at 100 uM after 16 to 20 hrs by microbroth dilution method. It counts as functional, organism-based. (In general: Broth dilution looks for growth in wells or tubes with falling amounts of substance.)
Series [5] deals with Bacillus spizizenii. Briefly: Antibacterial activity against Bacillus subtilis ATCC 6633 assessed as growth inhibition at 100 uM after 16 to 20 hrs by microbroth dilution method. It counts as functional.
For series [6], the system named is Staphylococcus aureus. Briefly: Antibacterial activity against methicillin-resistant Staphylococcus aureus subsp. aureus ATCC 43300 assessed as growth inhibition at 100 uM after 16 to 20 hrs by microbroth dilution method. It counts as functional, organism-based.
Series [7] deals with Candida albicans. Briefly: Antifungal activity against Candida albicans ATCC 10231 assessed as growth inhibition at 100 uM after 16 to 20 hrs by microbroth dilution method. Type of series: functional.
For series [8], the system named is Cryptococcus neoformans. Briefly: Antifungal activity against Cryptococcus neoformans ATCC 66031 assessed as growth inhibition at 100 uM after 48 hrs by microbroth dilution method. Type of series: functional.
The subject of series [9] is Cryptococcus neoformans. Briefly: Antifungal activity against Cryptococcus neoformans JEC20 assessed as growth inhibition at 100 uM after 48 hrs by microbroth dilution method. It counts as functional.
Series [10] relates to Cryptococcus neoformans. Briefly: Antifungal activity against Cryptococcus neoformans VANC-R265 assessed as growth inhibition at 100 uM after 48 hrs by microbroth dilution method. It counts as functional.
For series [11], the system named is Cryptococcus neoformans. Briefly: Antifungal activity against Cryptococcus neoformans B4546 assessed as growth inhibition at 100 uM after 48 hrs by microbroth dilution method. Type of series: functional.
Series [12] concerns Pseudomonas aeruginosa. Briefly: Antibacterial activity against Pseudomonas aeruginosa ATCC 27853 assessed as growth inhibition after 16 to 20 hrs by microbroth dilution method. It counts as functional.
In series [13] the test system is Escherichia coli. Briefly: Antibacterial activity against Escherichia coli ATCC 25922 assessed as growth inhibition after 16 to 20 hrs by microbroth dilution method. It counts as functional.
Series [14] has as its system Bacillus spizizenii. Briefly: Antibacterial activity against Bacillus subtilis ATCC 6633 assessed as growth inhibition after 16 to 20 hrs by microbroth dilution method. Type of series: functional.
Series [15] relates to Staphylococcus aureus. Briefly: Antibacterial activity against methicillin-resistant Staphylococcus aureus subsp. aureus ATCC 43300 assessed as growth inhibition after 16 to 20 hrs by microbroth dilution method. Type of series: functional.
Series [16] deals with Enterococcus faecalis. Briefly: Antibacterial activity against vancomycin-resistant Enterococcus faecalis ATCC 51299 assessed as growth inhibition after 16 to 20 hrs by microbroth dilution method. Type of series: functional.
For series [17], the system named is HEL. Briefly: Cytotoxicity against human HEL cells assessed as reduction in cell number by cell counting assay. It counts as functional.
Series [18] has as its system Vero. Briefly: Cytotoxicity against African green monkey Vero cells assessed as reduction in cell number. Type of series: cell-based. Particulars: chlorocebus sabaeus.
Series [19] deals with HeLa. Briefly: Cytotoxicity against human HeLa cells assessed as reduction in cell number. It counts as functional.

≈ marks a conversion by molar mass, not a printed value. Calls of active or inactive are those of the source. The rule behind the calls is not given here. Some results are limits rather than exact numbers.

Consider `Nc1nc(Cl)nc2ccsc12`, for which the IC50 in [1], in series [2] and in series [3] was above 250 µM throughout.
In the case of `O=c1[nH]c(=O)c2sccc2[nH]1`, the concentration for half-maximal inhibition (IC50) in [1], in series [2] and in series [3] was above 250 µM in each case.
For `Clc1nc(-n2cncn2)c2scc(Br)c2n1`, the IC50 was determined as 157 µM in [1], 84 µM in series [2] and 116 µM in series [3].
For `COc1nc(OC)c2scc(Br)c2n1` the same measures were above 250 µM, at least 250 µM and 203 µM.
In the case of `Clc1ncc2sccc2n1`, the inhibition entry in [4], in series [5], in [6], in series [7], in series [8] and in series [9] was “inactive” in each case. In addition, the inhibition result in series [10] and in series [11] was “inactive” throughout. For the same molecule, the IC50 in [1], in [2] and in [3] was above 250 µM in each case.
As to `CN(C)[C@@H]1C(O)=C(C(N)=O)C(=O)[C@@]2(O)C(O)=C3C(=O)c4c(O)cccc4[C@@](C)(O)[C@H]3C[C@@H]12` [TETRACYCLINE], the MIC95 in series [12] amounted to 50 µg/mL (≈ 113 µM); in series [13], 10 µg/mL (≈ 22.5 µM); in [14], 10 µg/mL (≈ 22.5 µM); in series [15] it was 10 µg/mL (≈ 22.5 µM); in series [16], 10 µg/mL (≈ 22.5 µM).
`Clc1nc(Cl)c2[nH]ccc2n1`: the inhibition result in series [4], in series [5], in [6], in [7], in series [8] and in series [9] was “inactive” each time. The inhibition entry in [10] and in [11] was “inactive” throughout. The 50% inhibitory concentration (IC50) in series [1] was determined as 6.8 µM; in [2], 25 µM; in series [3] it was 19 µM. Further, the MIC99 is 20 µM (≈ 3.76 µg/mL) in series [17], “>= 20 uM” in [18] and 20 µM (≈ 3.76 µg/mL) in series [19].
In the case of `COc1nc(OC)c2scc([C@H]3CC(=O)[C@@H](CO)O3)c2n1`, the IC50 in series [1], in series [2] and in series [3] was above 250 µM each time.
